Reference: patent publication US8227414B2 ([…].R.L., priority 2005, dated 2012)
Like-named read-outs stand apart in the source and are kept apart here. Ends that are not written are not given here. Peptide text beside a SMILES is read from it.

Key:
[1] = test system: mouse vas deferens; assay: Inhibition of the twitch induced by electrical stimulation of mouse vas deferens; assay type: cell-based
Description: The compounds were tested in vitro on Hamster oocytes membranes expressing the human recombinant NOP receptor (CHOhNoP) (receptor binding experiments and GTP?S binding stimulation experiments) and on the mouse vas deferens after electrical stimulation.

[2] = biological target: T1, human recombinant NOP receptor (Homo sapiens, UniProt P41146); assay: Receptor binding, displacement of tritiated N/OFQ on CHOhNOP membranes; conditions: Receptor binding PKi, Table 1; membrane of CHOhNOP cells; tritiated N/OFQ
T1 construct: expressed in transfected cells; host or cells: CHO cells (CHOhNOP), membranes
T1 sequence (P41146 whole entry): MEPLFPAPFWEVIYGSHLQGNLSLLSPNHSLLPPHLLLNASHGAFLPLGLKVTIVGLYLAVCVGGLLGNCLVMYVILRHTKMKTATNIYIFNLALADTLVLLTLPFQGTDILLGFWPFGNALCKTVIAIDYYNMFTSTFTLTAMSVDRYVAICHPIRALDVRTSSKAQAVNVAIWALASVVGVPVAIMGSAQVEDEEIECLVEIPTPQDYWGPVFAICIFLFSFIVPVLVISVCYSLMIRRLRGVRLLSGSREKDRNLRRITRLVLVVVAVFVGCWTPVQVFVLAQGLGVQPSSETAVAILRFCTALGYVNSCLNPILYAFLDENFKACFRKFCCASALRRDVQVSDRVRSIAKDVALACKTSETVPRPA

[3] = biological target: T1, human recombinant NOP receptor; assay: Stimulation of GTP?S binding on CHOhNOP membranes; assay type: biochemical
[4] = Metabolic stability in mouse plasma; assay type: in vitro ADME; conditions: for half-life at 6 μg/μl: male, Swiss, mouse, plasma, pH 7.4, mouse plasma
Description: (§1) Plasma and brain tissue samples were obtained from male Swiss mice (Morini, Reggio Emilia, Italy, 25-30 g). The animal, sacrificed by ether anesthesia, was perfused with physiological heparin solution injected through a needle placed in the left ventricle. Blood was then withdrawn and was centrifuged at 14000×g for 2 minutes at room temperature. After separation from the pellet, the plasma was aliquoted and stocked at −80° C. After blood withdrawal, the animal was perfused further with a physiological solution for 2 minutes before brain removal. The brain tissue was homogenized in 5 vol. (w/v) of Tris/HCl (50 mM, pH 7.4, 0° C.) with a ultra-Turrax (Janke Kunkel, Staufen, FRG) 3 times for 15 seconds each. The supernatant obtained by centrifugation (3000×g for 15 min at 4° C.) was decanted and then stocked at −80° C.
(§2) The protein content of the preparations, determined by the Bradford method, as described in Anal. Biochem., 72, 248-254, 1976, was approximately 8 μg/μl for the brain homogenate and 17 μg/μl for the plasma
(§3) An aliquot of 100 μl solution of each peptide (3 mg/500 μl Tris) was incubated (at a final concentration of […]) with brain homogenate or plasma (450 μl) in a total volume of 1 ml, containing Tris/HCl 50 mM pH 7.4 buffer. Incubation of the aliquots was carried out at 37° C. for various periods up to 240 min. At different incubation times, an aliquot of the solution (100 μl) was removed and the degradation was blocked by addition of 4.5% TFA solution (200 μl). After centrifugation (3000 rpm for 15 minutes) an aliquot (100 μl) of supernatant was injected into RP-HPLC. HPLC analysis was performed in a Kromasil 100-5C18 column (4.6×250 mm) using a Beckman System Gold chromatography system equipped with a variable wave length UV detector.
(§4) The experimental conditions for elution included a gradient analysis with water (solvent A) and acetonitrile (solvent B), both containing 0.1% TFA, at a flow rate of 0.7 ml/min. The following protocol was used for gradient analysis, selected on the basis of the physico-chemical characteristics of the analyte: linear gradient from 5% to 40% B in 20 minutes; linear gradient from 40% to 60% B in 5 minutes; linear gradient from 60% to 5% B in 5 minutes. The eluate was monitored at 220 nm. The half life (T1/2) was obtained by linear regression with the least square method, diagramming the peak areas of each derivative as a function of the incubation times, using at least five points for each analysis.

[5] = Metabolic stability in mouse brain homogenate; assay type: in vitro ADME; conditions: male, Swiss, pH 7.4, mouse brain homogenate, 37° C., mean±standard deviation, read-out: T½ Brain
Description: as §1, §2, §3, §4

[6] = test system: vas deferens of knockout mice for the NOP receptor (NOP−/−); assay: Electrically stimulated vas deferens from NOP receptor knockout mice; assay type: cell-based, mouse; conditions: Table 2
[7] = test system: mice; assay: Food intake in fed mice; assay type: in vivo, mouse
Excerpt: 2) measurement of food intake in fed animals, as described by Rizzi et al. (National Congress of the Italian Society of Neuroscience and joint Italian-Swedish Neuroscience Meetings, Ischia (Napoli) 1-4 Oct. 2005);

[8] = test system: mice; assay: Spontaneous locomotor activity in mice; assay type: in vivo, mouse
Description: Control animals received one i.c.v. injection of saline (2 μl/mouse). Each point represents the mean±s.e.m. of at least 4 experiments.
3) assay for measurement of spontaneous locomotor activity, as described by Rizzi et al., (Naunyn Schmiedebergs Arch Pharmacol 363, 161-165, 2001.

[9] = compared with N/OFQ maximal effect
[10] = 37° C., mean±standard deviation, read-out: T½ Plasma
[11] = Table 2, wild type (NOP+/+) mice

Compound | Emax ([1]; Table 4) [%] | pEC50 (CL 95%) ([1]; Table 4) | also measured
[(aMe)D/L-Leu^7]N/OFQ-NH2 [[(aMe)D/L-Leu^7]N/OFQ-NH2 (diastereomer 1)] | 84 ± 1 | 7.33 (7.04-7.62) | –
[Deg^7]N/OFQ-NH2 | 89 ± 2 | 7.91 (7.53-8.27) | –
N/OFQ-NH2 (FGGFTGARKSARKLANQ-NH2; UniProt Q13519 130-146, looked up) [reference compound] | – | – | Emax [1]: 93 ± 2%
[Iva^7]N/OFQ-NH2 [[Iva^7]N/OFQ-NH2 (diastereomer 1)] | 91 ± 4 | 7.83 (7.74-7.92) | –
[(aMe)D/L-Val^11]N/OFQ-NH2 [[(aMe)D/L-Val^11]N/OFQ-NH2 (diastereomer 1)] | 93 ± 2 | 7.71 (7.37-8.05) | –
[Dpg^11]N/OFQ-NH2 | 86 ± 3 | 7.53 (7.17-8.04) | –
[Iva^7]N/OFQ-NH2 [[Iva^7]N/OFQ-NH2 (diastereomer 2)] | 88 ± 3 | 7.62 (7.32-7.92) | –
[Ac5c^7]N/OFQ-NH2 | 98 ± 1 | 7.60 (7.40-7.80) | –
C[C@H](NC(=O)[C@H](CO)NC(=O)[C@H](CCCCN)NC(=O)[C@H](CCCNC(=N)N)NC(=O)C(C)(C)NC(=O)CNC(=O)[C@@H](NC(=O)[C@H](Cc1ccc(F)cc1)NC(=O)CNC(=O)CNC[C@@H](N)Cc1ccccc1)[C@@H](C)O)C(=O)N[C@@H](CCCNC(=N)N)C(=O)N[C@@H](CCCCN)C(=O)N[C@@H](CCCNC(=N)N)C(=O)N[C@@H](CCCCN)C(=O)N[C@@H](CC(N)=O)C(=O)N[C@@H](CCC(N)=O)C(N)=O [UFP-113, [Phe^1?(CH2—NH)Gly^2,(pF)Phe^4,Aib^7,Arg^14,Lys^15]N/OFQ-NH2] (HELM PEPTIDE1{[N[C@H](CNCC(=O)[*:2])Cc1ccccc1].G.[O=C([C@H](Cc1ccc(F)cc1)N[*:1])[*:2]].T.G.[Aib].R.K.S.A.R.K.R.K.N.Q.[am]}$$$$V2.0) | – | – | Ki [2]: 0.055 nM; EC50 [3]: 0.191 nM; Functional behaviour in GTP?S binding [3, 9]: partial NOP receptor agonist; Emax ([3]; read-out: Stimulation upon binding GTP?S, Agonist Emax): 79 ± 3%; Inhibition of the twitch induced by electric stimulation, Agonist pEC50 ([1]; Table 1): Variable agonist effects; Inhibition of the twitch induced by electric stimulation, Antagonist pA2 ([1]; Table 1, against N/OFQ): 9.28; Functional behaviour in mouse vas deferens [1, 9]: partial NOP receptor agonist; half-life at 6 μg/μl [4, 10]: 1.83 ± 0.167 h; Plasma T½ compared to N/OFQ ([4]; mouse plasma): about twice as long; half-life at 6 μg/μl [5]: 0.205 ± 0.0133 h
DPDPE [[D-Pen^2,D-Pen^5]-Enkephalin, reference compound] | – | – | Emax NOP+/+ [1, 11]: 93 ± 3%; pEC50 NOP+/+ [1, 11]: 8.40; Emax NOP−/− [6]: 91 ± 5%; pEC50 NOP−/− [6]: 8.20
[(aMe)D/L-Leu^11]N/OFQ-NH2 | 91 ± 4 | 7.87 (7.67-8.07) | –
[(aMe)D/L-Val^11]N/OFQ-NH2 [[(aMe)D/L-Val^11]N/OFQ-NH2 (diastereomer 2)] | 86 ± 4 | 7.83 (7.67-7.99) | –
[(aMe)D/L-Val^7]N/OFQ-NH2 [[(aMe)D/L-Val^7]N/OFQ-NH2 (diastereomer 1)] | 88 ± 1 | 7.26 (7.00-7.52) | –
[Deg^11]N/OFQ-NH2 | 87 ± 4 | 7.75 (7.43-7.89) | –
CC(C)C[C@H](NC(=O)[C@H](CCCCN)NC(=O)[C@H](CCCNC(=N)N)NC(=O)[C@H](C)NC(=O)[C@H](CO)NC(=O)[C@H](CCCCN)NC(=O)[C@H](CCCNC(=N)N)NC(=O)[C@H](C)NC(=O)CNC(=O)[C@@H](NC(=O)[C@H](Cc1ccccc1)NC(=O)CNC(=O)CNC(=O)[C@@H](N)Cc1ccccc1)[C@@H](C)O)C(=O)N[C@@H](C)C(=O)N[C@@H](CC(N)=O)C(=O)N[C@@H](CCC(N)=O)C(=O)O [N/OFQ, reference compound] | – | – | Inhibition of the twitch induced by electric stimulation, Agonist Emax ([1]; Table 1): −84 ± 3%; Inhibition of the twitch induced by electric stimulation, Agonist pEC50 ([1]; Table 1): 7.39; Emax NOP+/+ [1, 11]: 84 ± 4%; Hyperphagic effects in NOP−/− mice ([7]; NOP−/− mice): absent; Effect on food intake ([7]; fed mice, equi-effective doses): significant increase; Time after i.c.v. injection at which locomotor effect ended ([8]; 10 nmol i.c.v.): 60 min; Effect on spontaneous locomotor activity ([8]; i.c.v., N/OFQ 10 nmol, UFP-112 0.1 nmol): inhibited the locomotor activity; half-life at 6 μg/μl [4, 10]: 1.07 ± 0.0167 h; half-life at 6 μg/μl ([4]; read-out: Half life in the plasma (converted)): ~1 h; half-life at 6 μg/μl [5]: ~0.05 h
[Ac6c^7]N/OFQ-NH2 | 87 ± 1 | 7.20 (6.86-7.54) | –
[Dpg^7]N/OFQ-NH2 | 91 ± 4 | 7.90 (7.71-8.11) | –
[Ac5c^11]N/OFQ-NH2 | 89 ± 4 | 8.08 (7.93-8.23) | –
[Ac6c^11]N/OFQ-NH2 | 89 ± 4 | 7.79 (7.53-8.05) | –
[(aMe)D/L-Leu^7]N/OFQ-NH2 [[(aMe)D/L-Leu^7]N/OFQ-NH2 (diastereomer 2)] | 95 ± 2 | 7.12 (7.02-7.22) | –
[Ac3c^11]N/OFQ-NH2 | 91 ± 4 | 7.78 (7.62-7.94) | –
[Nphe1,Arg14,Lys15]N/OFQ-NH2 (XGGFTGARKSARKRKNQ; Nphe1, C-terminal amide; Synthetized. Featured in patent as UFP-101, ref. Calòet al. Br J Pharmacol 136, 303-311, 2002) [reference compound] | – | – | pA2 in competition with the endogenous agonist N/OFQ ([1]; agonist N/OFQ): 6.91; pA2 in competition with UFP-112 ([1]; agonist UFP-112): 6.81
[Ac3c^7]N/OFQ-NH2 | 98 ± 1 | 7.08 (6.82-7.34) | –
[(aMe)D/L-Val^7]N/OFQ-NH2 [[(aMe)D/L-Val^7]N/OFQ-NH2 (diastereomer 2)] | 95 ± 1 | 7.56 (7.34-7.78) | –
